From patent US9340492B2, “Meta-Diarylaniline or meta-diarylpyridinamine compound, preparation method and medical uses thereof” (INSTITUTE OF PHARMACOLOGY AND TOXICOLOGY ACADEMY OF …, priority 2012, dated 2016) come the findings set out here.

A short description of series [1]: TZM-bl cytotoxicity assay (XTT). Type of series: cell-based. The note with it: human, TZM-bl cells, read-out: CC50, concentration effective to inhibit the growth of half of cells. The protocol:
The assay was carried out by reference to the document (Dang, Z, et al. J. Med. Chem. 2009, 52, 7887-7891). In particular, in a 96-well cell culture plate, solutions of Compounds 1-57 at different concentrations (100 μl) were mixed with an equivalent volume of TZM-bl cells (from National Institutes of Health (NIH)) (5×10^5/mL), and were incubated at 37° C. for 4 d. 50 μl of freshly prepared XTT solution (1 mg/mL) containing 0.02 μM PMS was added. Optical density at 450 nm was measured 4 h later.

The subject of series [2] is NL4-3 virus (HIV, wild-type). Description: Anti-HIV activity assay (TZM-bl cell model), NL4-3 wild-type. The note with it: human, TZM-bl cells infected with HIV-1 NL4-3 virus; CC50 (TZM-bl) / EC50 (NL4-3); read-out: SI, selective index, ratio of toxic CC50 value to active EC50 value. Type of series: cell-based. The protocol:
(§1) The assay was carried out by reference to the document (Dang, Z, et al. J. Med. Chem. 2009, 52, 7887-7891). In particular, in a 96-well cell culture plate, solutions of the compounds to be tested at different concentrations were mixed with TZM-bl cells (from National Institutes of Health (NIH)) infected with 200 TCID50 NL4-3 virus, respectively. 2 days later, the culture medium was removed, 100 μl of Bright Glo reagent was added to each well, and Victor 2 luminometer was used to detect the […] of the cells.

Another series deals with NL4-3 virus. The series is described as above. In kind it is cell-based. The conditions noted are these: Human immunodeficiency virus 1, NL43; NL4-3 HIV wild-type, TZM-bl cells; read-out: EC50, concentration effective to inhibit the replication of half of viruses. How it is done: as §1

As to `Cc1cc(/C=C/C#N)cc(C)c1Oc1cc(Nc2ccc(C#N)cc2)c([N+](=O)[O-])cc1C(F)(F)F` [Compound 1, 5-(4″-cyanovinyl-2″,6″-dimethylphenoxy)-N^1-(4′-cyanophenyl)-4-trifluoromethyl-2-nitroaniline], the melting point (usually the temperature, or range, at which the solid turns liquid) lay in the range of 248 to 250 °C.

`COC(=O)c1cc([N+](=O)[O-])c(Nc2ccc(C#N)cc2)cc1Oc1c(C)cc(/C=C/C#N)cc1C` [Compound 3, 5-(4″-cyanovinyl-2″,6″-dimethylphenoxy)-N^1-(4′-cyanophenyl)-4-methoxycarbonyl-2-nitroaniline] returned a melting point of 260 to 262 °C.

Take `Cc1cc(/C=C/C#N)cc(C)c1Oc1cc(Nc2ccc(C#N)cc2)c([N+](=O)[O-])cc1CO` [Compound 5, N^1-(4′-cyanophenyl)-5-(4″-cyanovinyl-2″,6″-dimethylphenoxy)-4-hydroxymethyl-2-nitroaniline]: the melting point lay in the range of 232 to 234 °C.

`Cc1cc(/C=C/C#N)cc(C)c1Oc1cc(Nc2ccc(C#N)cc2)c([N+](=O)[O-])cc1C(=O)O` [Compound 7, 4-carboxyl-5-(4″-cyanovinyl-2″,6″-dimethylphenoxy)-N^1-(4′-cyanophenyl)-2-nitroaniline] returned a melting point of 262 to 265 °C.

`Cc1cc(/C=C/C#N)cc(C)c1Oc1cc(Nc2ccc(C#N)cc2)c([N+](=O)[O-])cc1C(N)=O` [Compound 9] registered a melting point of 278 to 280 °C.

As to `Cc1cc(CCC#N)cc(C)c1Oc1cc(Nc2ccc(C#N)cc2)c(N)cc1C(N)=O` [Compound 10, 4-carbamoyl-N^1-(4′-cyanophenyl)-5-(4″-cyanoethyl-2″,6″-dimethylphenoxy)-1,2-phenylenediamine], the CC50 at 4 d in series [1] is above 9400 nM. Also, the selectivity ratio at 2 days in series [2] is above 6760. Further, the EC50 with NL4-3 virus was determined as 1.39 nM.

In the case of `CNC(=O)c1cc([N+](=O)[O-])c(Nc2ccc(C#N)cc2)cc1Oc1c(C)cc(/C=C/C#N)cc1C` [Compound 11, N^1-(4′-cyanophenyl)-5-(4″-cyanovinyl-2″,6″-dimethylphenoxy)-4-(N-methylacylamino)-2-nitroaniline], the melting point lay within 218 to 220 °C.

For the compound `CCCc1cc(C)c(Oc2ccc(N)c(Nc3ccc(C#N)cc3)n2)c(C)c1` [Compound 16, N^2-(4-cyanoanilinyl)-6-(2,6-dimethyl-4-propylphenoxy)-3-aminopyridine], the CC50 at 4 d in series [1] turned out to be 16400 nM. Further, the selectivity ratio at 2 days in series [2] is 1120. For the same compound, the EC50 with NL4-3 virus was 14.7 nM.

Consider `Cc1cc(CO)cc(C)c1Oc1cc(Nc2ccc(C#N)cc2)c(N)cc1CO` [Compound 18, N^1-(4′-cyanophenyl)-5-(4″-hydroxymethyl-2″,6″-dimethylphenoxy)-4-hydroxymethyl-1,2-phenylenediamine], for which, in series [1], the CC50 at 4 d is above 15900 nM. Besides, the selectivity ratio at 2 days in series [2] is above 1590. Further, the EC50 with NL4-3 virus was 10 nM.

Turning to `N#CCCc1cc(F)c(Oc2ccc(N)c(Nc3ccc(C#N)cc3)n2)c(F)c1` [Compound 21, N^2-(4-cyanoanilinyl)-6-(2,6-difluoro-4-cyanoethyl-phenoxy)-3-aminopyridine], the CC50 at 4 d in series [1] is above 10200 nM. Besides, the selectivity ratio at 2 days in series [2] was above 3640. The EC50 with NL4-3 virus worked out at 2.8 nM.

For the compound `COC(=O)CCc1cc(F)c(Oc2ccc(N)c(Nc3ccc(C#N)cc3)n2)c(F)c1` [Compound 23, N^2-(4-cyanoanilinyl)-6-(2,6-difluoro-4-methyl propionatephenoxy)-3-aminopyridine], the CC50 at 4 d in series [1] is above 15300 nM. The selectivity ratio at 2 days in series [2] was above 155. Also, the EC50 with NL4-3 virus is 99 nM.

As for `N#Cc1ccc(Nc2nc(Oc3c(F)cc(CCCO)cc3F)ccc2N)cc1` [Compound 24, N^2-(4-cyanoanilinyl)-6-(2,6-difluoro-4-(3-hydroxypropyl)phenoxy)-3-aminopyridine], the CC50 at 4 d in series [1] is above 25200 nM. For the same compound, in series [2], the selectivity ratio at 2 days is above 525. Moreover, the EC50 with NL4-3 virus amounted to 48 nM.

For `COc1cc(/C=C/C#N)cc(Br)c1Oc1ccc(N)c(Nc2ccc(C#N)cc2)n1` [Compound 26B], the CC50 at 4 d in series [1] turned out to be 21300 nM. In addition, the selectivity ratio at 2 days in series [2] turned out to be 1210. Also, the EC50 with NL4-3 virus was 25.7 nM.

Take `CC(=O)CCc1cc(F)c(Oc2ccc(N)c(Nc3ccc(C#N)cc3)n2)c(F)c1` [Compound 30, N^2-(4-cyanoanilinyl)-6-(2,6-difluoro-4-(2-butanonyl)phenoxy)-3-aminopyridine]: the CC50 at 4 d in series [1] was above 9800 nM. Further, the selectivity ratio at 2 days in series [2] is above 2130. For the same compound, the EC50 with NL4-3 virus was 4.7 nM.

For the compound `Cc1cc(CCC#N)cc(C)c1Oc1cc(Nc2ccc(C#N)cc2)c(N)cc1C(=O)NN` [Compound 36, 5-(4″-cyanoethyl-2″,6″-dimethylphenoxy)-N^1-(4′-cyanophenyl)-4-formhydrazide-1,2-phenylenediamine], the CC50 at 4 d in series [1] is above 22700 nM. Further, the selectivity ratio at 2 days in series [2] was above 1190. Moreover, the EC50 in the series on NL4-3 virus came out at 19.1 nM.

Take `CC(=O)OCc1cc(N)c(Nc2ccc(C#N)cc2)cc1Oc1c(C)cc(CCC#N)cc1C` [Compound 37, 4-acetyloxymethyl-N^1-(4′-cyanophenyl)-5-(4″-cyanoethyl-2″,6″-dimethylphenoxy)-1,2-phenylenediamine]: the CC50 at 4 d in series [1] was above 5000 nM. In series [2], the selectivity ratio at 2 days is above 1520. For the same compound, the EC50 with NL4-3 virus came to 3.29 nM.

For the compound `COCc1cc(N)c(Nc2ccc(C#N)cc2)cc1Oc1c(C)cc(CCC#N)cc1C` [Compound 38, N^1-(4′-cyanophenyl)-5-(4″-cyanoethyl-2″,6″-dimethylphenoxy)-4-methoxymethyl-1,2-phenylenediamine], the CC50 at 4 d in series [1] is above 5000 nM. In series [2], the selectivity ratio at 2 days was above 2290. Also, the EC50 with NL4-3 virus was 2.18 nM.

On to `Cc1cc(CCC#N)cc(C)c1Oc1cc(Nc2ccc(C#N)cc2)c(N)cc1COC(=O)C1CC1` [Compound 39, N^1-(4′-cyanophenyl)-5-(4″-cyanoethyl-2″,6″-dimethylphenoxy)-4-cyclopropionyloxymethyl-1,2-phenylenediamine], for which, in series [1], the CC50 at 4 d is above 5000 nM. In addition, the selectivity ratio at 2 days in series [2] is above 3070. Moreover, the EC50 in the series with NL4-3 virus is 1.63 nM.

In the case of `Cc1cc(CCC#N)cc(C)c1Oc1cc(Nc2ccc(C#N)cc2)c(N)cc1CN(C)C` [Compound 40, N^1-(4′-cyanophenyl)-5-(4″-cyanoethyl-2″,6″-dimethylphenoxy)-4-[N,N-dimethylaminomethyl]-1,2-phenylenediamine], the CC50 at 4 d in series [1] is above 5000 nM. The selectivity ratio at 2 days in series [2] was above 1830. In addition, the EC50 in the series on NL4-3 virus was determined as 2.73 nM.

With `CCNC(=O)c1cc(N)c(Nc2ccc(C#N)cc2)cc1Oc1c(C)cc(CCC#N)cc1C` [Compound 41], in series [1], the CC50 at 4 d was above 5000 nM. Besides, the selectivity ratio at 2 days in series [2] was above 1080. In addition, the EC50 with NL4-3 virus is 4.63 nM.

Take `Cc1cc(CCC#N)cc(C)c1Oc1cc(Nc2ccc(C#N)cc2)c(N)cc1C(=O)N(C)C` [Compound 42, N^1-(4′-cyanophenyl)-5-(4″-cyanoethyl-2″,6″-dimethylphenoxy)-4-[N,N-dimethylformamido]-1,2-phenylenediamine]: the CC50 at 4 d in series [1] was above 5000 nM. The selectivity ratio at 2 days in series [2] was above 810. In addition, the EC50 in the series with NL4-3 virus came out at 6.17 nM.

Turning to `Cc1cc(CCC#N)cc(C)c1Oc1cc(Nc2ccc(C#N)cc2)c(N)cc1C(=O)NC1CC1` [Compound 43, N^1-(4′-cyanophenyl)-5-(4″-cyanoethyl-2″,6″-dimethylphenoxy)-4-[N-cyclopropylformamido]-1,2-phenylenediamine], in series [1], the CC50 at 4 d is above 5000 nM. Besides, in series [2], the selectivity ratio at 2 days was above 3760. Besides, the EC50 in the series with NL4-3 virus came to 1.33 nM.
